# From patent US9302999B2, “Substituted triazoles as herbicides” (E. I. DU PONT DE NEMOURS AND COMPANY, priority 2012, dated 2016)
# Key:
# Assay type in all cases: in vivo
# [1] = test system: barnyardgrass (Echinochloa crus-galli); test: Test A pre-/postemergence: barnyardgrass
# Outline: (§1)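 Pre: directed soil spray after planting in loam + sand. Post: same formulation (non-phytotoxic solvent + surfactant) on 1–2-leaf plants, 2–10 cm. Greenhouse ~10 d; visual injury 0–100 vs untreated.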
# [2] = test system: crabgrass, large (large crabgrass, Digitaria sanguinalis); test: Test A pre-/postemergence: crabgrass, large
# Outline: as §1
# [3] = test system: foxtail, giant (giant foxtail, Setaria faberii); test: Test A pre-/postemergence: foxtail, giant
# Outline: as §1
# [4] = test system: morningglory (Ipomoea spp.); test: Test A pre-/postemergence: morningglory
# Outline: as §1
# [5] = test system: pigweed (Amaranthus retroflexus); test: Test A pre-/postemergence: pigweed
# Outline: as §1
# [6] = test system: velvetleaf (Abutilon theophrasti); test: Test A pre-/postemergence: velvetleaf
# Outline: as §1
# [7] = test system: wheat (Triticum aestivum); test: Test A pre-/postemergence: wheat
# Outline: as §1
# [8] = test system: corn (Zea mays); test: Test A pre-/postemergence: corn
# Outline: as §1
# [9] = test system: rice (Oryza sativa); test: Test B flooded paddy: rice; settings: Flood, applied to paddy water at 2-leaf stage, visually evaluated after 13 to 15 days
# Outline: (§2)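 Greenhouse assay lasting 13 to 15 days. Treatment was into water flooding pots 3 cm deep, at the 2-leaf stage, with that level sustained afterwards. Scores compare treated with control plants visually, 100 denoting complete control and 0 no effect; a dash marks no test result.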
# [10] = test system: sedge, umbrella (small-flower umbrella sedge Cyperus difformis); test: Test B flooded paddy: sedge, umbrella; settings: Flood, applied to paddy water at 2-leaf stage, visually evaluated after 13 to 15 days
# Outline: as §2
# [11] = test system: ducksalad (Heteranthera limosa); test: Test B flooded paddy: ducksalad; settings: Flood, applied to paddy water at 2-leaf stage, visually evaluated after 13 to 15 days
# Outline: as §2
# [12] = test system: barnyardgrass (Echinochloa crus-galli); test: Test B flooded paddy: barnyardgrass; settings: Flood, applied to paddy water at 2-leaf stage, visually evaluated after 13 to 15 days
# Outline: as §2
# [13] = Postemergence, 125 g ai/ha, 0 to 100 scale, 0 is no effect, 100 is complete control
# [14] = Postemergence, 500 g ai/ha, visual rating on 0 to 100 scale (0 no effect, 100 complete control), approximately ten days
# [15] = Preemergence, 125 g ai/ha, 0 to 100 scale where 0 is no effect and 100 is complete control
# [16] = Preemergence, 500 g ai/ha, 0 to 100 scale (0 no effect, 100 complete control)
# [17] = Postemergence, 500 g ai/ha, 0 to 100 scale, 0 is no effect, 100 is complete control
SMILES,"Plant response rating, Barnyardgrass [1, 13]","Plant response rating, Barnyardgrass [1, 15]","Plant response rating, Barnyardgrass [1, 16]","Plant response rating, Crabgrass, Large [2, 13]","Plant response rating, Crabgrass, Large [2, 15]","Plant response rating, Crabgrass, Large [2, 16]","Plant response rating, Foxtail, Giant [3, 13]","Plant response rating, Foxtail, Giant [3, 15]","Plant response rating, Foxtail, Giant [3, 16]","Plant response rating, Morningglory [4, 13]","Plant response rating, Pigweed [5, 13]","Plant response rating, Pigweed [5, 15]","Plant response rating, Pigweed [5, 16]","Plant response rating, Velvetleaf [6, 13]","Plant response rating, Velvetleaf [6, 15]","Plant response rating, Velvetleaf [6, 16]","Plant response rating, Wheat [7, 13]","Plant response rating, Wheat [7, 15]","Plant response rating, Wheat [7, 16]","Plant response rating, Corn [8, 13]",further results
Fc1ccc(-n2nc(F)c(Cc3ccnc(C(F)(F)F)c3)n2)cc1 [Compound 159],50,10,80,20,10,30,40,40,90,60,90,70,90,20,0,0,0,0,0,20,"Barnyardgrass plant response rating [1, 14]: 80; Crabgrass, Large plant response rating [2, 14]: 40; Foxtail, Giant plant response rating [3, 14]: 90; Morningglory plant response rating [4, 14]: 90; Plant response rating, Morningglory [4, 15]: 0; Plant response rating, Morningglory [4, 16]: 0; Pigweed plant response rating [5, 14]: 100; Velvetleaf plant response rating [6, 14]: 60; Wheat plant response rating [7, 14]: 30; Corn plant response rating [8, 14]: 30; Plant response rating, Corn [8, 15]: 0; Plant response rating, Corn [8, 16]: 0; Plant response rating, Rice (0 to 100 scale, 0 is no effect, 100 is complete control) ([9]; 250 g ai/ha): 30; Plant response rating, Sedge, Umbrella (0 to 100 scale, 0 is no effect, 100 is complete control) ([10]; 250 g ai/ha): 60; Plant response rating, Ducksalad (0 to 100 scale, 0 is no effect, 100 is complete control) ([11]; 250 g ai/ha): 20; Plant response rating, Barnyardgrass (0 to 100 scale, 0 is no effect, 100 is complete control) ([12]; 250 g ai/ha): 30"
COCc1nn(-c2ccc(F)cc2)nc1Oc1ccnc(C(F)(F)F)c1 [Compound 161],30,20,60,70,100,100,60,100,100,30,100,100,100,40,0,50,10,0,10,10,"Barnyardgrass plant response rating [1, 14]: 70; Crabgrass, Large plant response rating [2, 14]: 90; Foxtail, Giant plant response rating [3, 14]: 90; Morningglory plant response rating [4, 14]: 50; Plant response rating, Morningglory [4, 15]: 10; Plant response rating, Morningglory [4, 16]: 10; Pigweed plant response rating [5, 14]: 100; Velvetleaf plant response rating [6, 14]: 80; Wheat plant response rating [7, 14]: 30; Corn plant response rating [8, 14]: 30; Plant response rating, Corn [8, 15]: 10; Plant response rating, Corn [8, 16]: 10; Plant response rating, Rice (0 to 100 scale, 0 is no effect, 100 is complete control) ([9]; 125 g ai/ha): 20; Plant response rating, Sedge, Umbrella (0 to 100 scale, 0 is no effect, 100 is complete control) ([10]; 125 g ai/ha): 80; Plant response rating, Ducksalad (0 to 100 scale, 0 is no effect, 100 is complete control) ([11]; 125 g ai/ha): 0; Plant response rating, Barnyardgrass (0 to 100 scale, 0 is no effect, 100 is complete control) ([12]; 125 g ai/ha): 0"
COc1nn(-c2ccc(F)cc2F)nc1Cc1ccnc(C(F)(F)F)c1 [Compound 165],40,30,100,70,100,100,60,90,100,60,100,100,100,40,0,10,20,0,0,20,"Barnyardgrass plant response rating [1, 17]: 90; Crabgrass, Large plant response rating [2, 17]: 90; Foxtail, Giant plant response rating [3, 17]: 90; Morningglory plant response rating [4, 17]: 80; Pigweed plant response rating [5, 17]: 100; Velvetleaf plant response rating [6, 17]: 70; Wheat plant response rating [7, 17]: 30; Corn plant response rating [8, 17]: 30; Plant response rating, Corn [8, 15]: 0; Plant response rating, Corn [8, 16]: 10; Plant response rating, Rice (0 to 100 scale, 0 is no effect, 100 is complete control) ([9]; 125 g ai/ha): 20; Plant response rating, Sedge, Umbrella (0 to 100 scale, 0 is no effect, 100 is complete control) ([10]; 125 g ai/ha): 70; Plant response rating, Ducksalad (0 to 100 scale, 0 is no effect, 100 is complete control) ([11]; 125 g ai/ha): 40; Plant response rating, Barnyardgrass (0 to 100 scale, 0 is no effect, 100 is complete control) ([12]; 125 g ai/ha): 10"
